Reference: patent US12378571B2, “Use of glyphosate for disease suppression and yield enhancement in soybean” (Monsanto Technology LLC, priority 2009, dated 2025)

Legend:
[1] = tested on: Brown Stem Rot of soybean; assay: Field studies, Brown Stem Rot: Roundup WeatherMAX, picoxystrobin, tank mix (Rup 1X = 0.84 kg ae/ha; picoxystrobin 0.125 kg ai/ha); type: in vivo; conditions: for BSR Foliar Symptoms (0-11 HB scale): picoxystrobin 1X at R2; for Calculated Values (% of control) Foliar Symptoms: treatment 9 (picoxystrobin 1X at R2)
[2] = Mobilization of glyphosate in planta after foliar application; type: in vivo
Text: Mobilization of glyphosate in planta was studied to determine the potential to impact on activity against plant diseases. About 1 day after foliar application of glyphosate about 70% of the applied glyphosate may be found on the leaf surface, where it may directly contact fungal spores or infective structures, inhibiting their growth, and killing them. About 21% of the glyphosate was found localized within the foliage where it can act to inhibit infection locally. About 9% of the applied glyphosate was transported out of the treated leaf and detected systemically (e.g. in stems and roots) at the time of testing (e.g. Feng et al. 2005). The transported fraction of applied glyphosate increases to about 40% over time, further increasing systemic fungicidal activity.

[3] = tested on: Phakopsora pachyrhizi EPSPS expressed in Escherichia coli strain lacking native EPSPS; assay: Zone of growth inhibition, filter paper disk on plate seeded with E. coli expressing fungal EPSPS; type: cell-based
Description: Glyphosate Mode of Action Against Plant Pathogenic Fungi A gene encoding EPSPS was cloned from a representative phytopathogenic fungus, in this case, from Phakopsora pachyrhizi, the causal agent of Asian Soybean Rust (“ASR”), and expressed in an Escherichia coli strain lacking the native bacterial E. coli EPSPS. Thus, EPSPS activity in the recombinant bacterial strain was due to the presence of the fungal EPSPS. Glyphosate was added to a filter paper disk and placed on a culture plate seeded with the recombinant E. coli cells, allowing for detection of a zone of growth inhibition of bacterial cells.

[4] = tested on: Brown Stem Rot (Phialaphora gregata); assay: Field trials, Brown Stem Rot, glyphosate (Example 4, Table 1); type: in vivo, soybean
Description: (§1) Greenhouse studies were performed to determine the effect of glyphosate timing and rate of application in preventing or suppressing the development of BSR in soybean plants. […] Field trials were also performed. Asgrow cv. 2107 soybean plants were planted and maintained weed free with pre-emergence herbicides at recommended rates, followed by hand weeding as necessary.

Diaporthe phaseolorum = assay: Greenhouse studies, Stem Canker of soybean, glyphosate after inoculation; type: in vivo; conditions: 0.84-2.52 kg ae/ha following inoculation
Description: Stem Canker of soybean (STC) is caused by Diaporthe phaseolorum. Greenhouse studies were performed to determine the efficacy of timing of glyphosate application (e.g. 0.84-2.52 kg ae/ha) following inoculation with the pathogen.

[5] = tested on: Brown Stem Rot (Phialaphora gregata); assay: Greenhouse studies, Brown Stem Rot, glyphosate timing and rate; type: in vivo, soybean; conditions: application 4 days before infection, about 0.84-2.5 kg ae/ha
Description: as §1

[6] = about 1 day after foliar application

| SMILES | BSR Foliar Symptoms (0-11 HB scale) ([1]; 7-Sep) | Calculated Values (% of control) Foliar Symptoms ([1]; 7-Sep) | BSR Foliar Symptoms (0-11 HB scale) ([1]; 14-Sep) | Calculated Values (% of control) Foliar Symptoms ([1]; 14-Sep) | BSR Foliar Symptoms (0-11 HB scale) ([1]; 31-Aug) | Calculated Values (% of control) Foliar Symptoms ([1]; 31-Aug) | applied glyphosate found on the leaf surface [2, 6] | glyphosate localized within the foliage [2, 6] | applied glyphosate transported out of the treated leaf and detected systemically (stems and roots) ([2]; at the time of testing, about 1 day after foliar application) | transported fraction of applied glyphosate ([2]; over time) | zone of inhibition ([3]; 5 mg of glyphosate on filter paper disk) | zone of growth inhibition ([3]; 20 mg of glyphosate on filter paper disk) | suppression of BSR, as measured by foliar symptom severity ([4]; glyphosate applied at V3- R2 growth stages) | yield relative to untreated controls ([4]; treated soybean test plots) | prophylaxis of Soybean Stem Canker (Diaporthe phaseolorum) | foliar incidence of BSR [5] |
| --- | --- | --- | --- | --- | --- | --- | --- | --- | --- | --- | --- | --- | --- | --- | --- | --- |
| CO/C=C(/C(=O)OC)c1ccccc1COc1cccc(C(F)(F)F)n1 [picoxystrobin] | 3.6 0-11 HB scale | 72.0 % of control | 6.8 0-11 HB scale | 113.3 % of control | 3.0 0-11 HB scale | 93.8 % of control | – | – | – | – | – | – | – | – | – | – |
| O=C(O)CNCP(=O)(O)O [glyphosate, N-phosphonomethylglycine] | – | – | – | – | – | – | about 70% | About 21% | About 9% | about 40% | about 24 mm | about 38 mm | suppression of BSR (reduced stem rot severity) | Increased yield | Prophylactic results, even 7 or more days post-inoculation, were seen | reduced the level of foliar incidence of the disease |
